Data: patent publication US10376453B1, “Composition for promoting hair growth containing novel pantetheine derivative” (KOREA INSTITUTE OF OCEAN SCIENCE AND TECHNOLOGY, priority 2016, dated 2019)

Tested on: dermal papilla cells
Assay: Measurement of viability of dermal papilla cells (MTT); promotion of growth of dermal papilla cells
Type: cell-based, human
Details: 24 hours culture, MTT absorbance at 570 nm, Control = 100
Protocol: For cell culture, Dulbecco's Modified Eagle Medium (DMEM), fetal bovine serum (FBS), 0.25% trypsin-1 mM EDTA, and penicillin-streptomycin were used, and dermal papilla cells were cultured at 37° C. in a humidified 5% CO2. The medium was replaced twice a week, and the cultured dermal papilla cells were washed with PBS within 6-7 days. Next, the attached cells were separated by 0.05% trypsin-0.02% EDTA, centrifuged, and then subcultured for experiments. Specifically, 200 μl of dermal papilla cells were dispensed into each well of a 96-well plate at a density of 1×10^4 cells/well, and cultured under the conditions of 37° C. and 5% CO2 for 18 hours so as to be attached to each well. After 18 hours, the medium was removed, and 200 μl of samples was added to each well having the cells attached thereto, followed by culture for 24 hours. After the medium was removed, 100 μl of a solution of 3-(4,5-dimethylthiazol)-2,5-diphenyltetrazoliumbromide(MTT), prepared by dissolving MTT in PBS at a concentration of 500 μg/ml, was added to the cultured cells, followed by culture for 4 hours under the same conditions as described above. The formed formazan crystal was dissolved in DMSO, and the absorbance at 570 nm was measured using an ELISA reader. The measured OD values ranging from 0.00 to 3.50 were used for the experimental results. The sample for treatment of the cells was used at concentrations of 0.5, 5 and 50 μM.

Row | Compound | Effect on the growth of dermal papilla cells (0.5 μM sample) | Effect on the growth of dermal papilla cells (5 μM sample) | Effect on the growth of dermal papilla cells (50 μM sample)
1 | CCC(C)C(=O)SCCNC(=O)CCNC(=O)[C@H](O)C(C)(C)CO (stereo partly drawn) [S1, 2-methylbutyryl-D-pantetheine] | 113.31 | 129.65 | 139.19
2 | CC(C)CC(=O)SCCNC(=O)CCNC(=O)[C@H](O)C(C)(C)CO [S2, 3-methylbutyryl-D-pantetheine] | 121.04 | 114.65 | 121.28
3 | C=CCCC(=O)SCCNC(=O)CCNC(=O)[C@H](O)C(C)(C)CO [S4, 4-pentenoyl-D-pantetheine] | 116.88 | 122.89 | 111.97
4 | C=CCCCCCCCCC(=O)SCCNC(=O)CCNC(=O)[C@H](O)C(C)(C)CO [S5, 10-undecenoyl-D-pantetheine] | 111.24 | 93.01 | 101.62
5 | CC(C)(CO)[C@@H](O)C(=O)NCCC(=O)NCCSC(=O)c1ccc(O)cc1O [S7, 2,4-dihydroxybenzoyl-D-pantetheine] | 95.73 | 97.32 | 93.12
6 | Nc1cc(N2CCCCC2)nc(N)[n+]1[O-] [minoxidil, reference compound] | 146.66 | 146.52 | 140.29
7 | cinnamoyl-D-pantetheine [S3] | 119.77 | 122.38 | 133.33
8 | isobutyl formate-D-pantetheine [S6] | 130.57 | 112.94 | 135.95
